Data published in patent US12257247B2 (Monte Rosa Therapeutics AG, priority 2023, dated 2025).
Read-outs that look alike come from different tables or passages of the source.

Biological target: T1, VAV1 (Homo sapiens, UniProt P15498+Q96SW2)
T1 construct: A heterozygous VAV1 C-terminal HiBiT knock-in pool was generated at Monte Rosa Therapeutics from a clonal Jurkat cell; endogenous in cells; host or cells: Jurkat clone stably expressing LgBiT, homozygous GSPT1-G575N; heterozygous VAV1-HiBiT knock-in pool
Assay: VAV1 degradation activity, VAV1-HiBiT knock-in Jurkat luminescence assay (Example A, Table 1)
Type: cell-based
Details: VAV1-HiBiT knock-in Jurkat cells; for Dmax: Jurkat
In short: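 Jurkat cells carrying VAV1-HiBiT knock-in, plated in RPMI/10% FBS with Endurazine live-cell substrate and pre-incubated ~16 h at 37° C. Compound dosed from 10 μM stock; luminescence read 6 and 24 h later. Response normalised to plate negative/positive controls, EC50 from 3-parameter logistic fit (hillslope 1).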

[1] = luminescence read at 6 and 24 hours, read-out: VAV1 Dmax %
[2] = luminescence read at 6 and 24 hours, read-out: VAV1 Dmax %, class
[3] = luminescence read at 6 and 24 hours, read-out: VAV1 DC50
[4] = luminescence read at 6 and 24 hours, read-out: VAV1 DC50 (nM), class
[5] = luminescence read at 6 and 24 hours after compound addition, read-out: VAV1 Dmax %
[6] = luminescence read at 6 and 24 hours after compound addition, read-out: VAV1 Dmax %, class
[7] = luminescence read at 6 and 24 hours after compound addition, read-out: VAV1 DC50
[8] = luminescence read at 6 and 24 hours after compound addition, read-out: VAV1 DC50 (nM), class

Row | SMILES | Dmax [1] [%] | Dmax [2] [%] | DC50 [3] [nM] | DC50 [4] [nM] | Dmax [5] [%] | Dmax [6] [%] | DC50 [7] [nM] | DC50 [8] [nM]
1 | O=C1CCC(c2cccc(-c3ccc(N4Cc5cccnc5C4=O)cc3)c2Cl)C(=O)N1 (centres unmarked) [Compound 465, 3-(2-chloro-4′-(7-oxo-5,7-dihydro-6H-pyrrolo[3,4-b]pyridin-6-yl)-[1,1′-biphenyl]-3-yl)piperidine-2,6-dione] | 39.9 | < 60 | ≥ 10000 | > 1000 |  |  |  | 
2 | O=C1CCC(c2cccc(-c3ccc(N4CCCNC4=O)cc3)c2Cl)C(=O)N1 (centres unmarked) [Compound 372, 3-(2-chloro-4′-(2-oxotetrahydropyrimidin-1(2H)-yl)-[1,1′-biphenyl]-3-yl)piperidine-2,6-dione] | 94.4 | > 90 | 10 | ≤ 100 |  |  |  | 
3 | Cn1ccc(CNc2ccc(-c3cccc(C4CCC(=O)NC4=O)c3Cl)cc2)n1 (centres unmarked) [Compound 180, 3-(2-chloro-4′-(((1-methyl-1H-pyrazol-3-yl)methyl)amino)-[1,1′-biphenyl]-3-yl)piperidine-2,6-dione] | 88.8 | 60 to 90 | 11.5 | ≤ 100 |  |  |  | 
4 | O=C1CCC(c2cccc(-c3ccc4[nH]ncc4c3)c2Cl)C(=O)N1 (centres unmarked) [Compound 485, 3-[2-chloro-3-(1H-indazol-5-yl)phenyl]piperidine-2,6-dione] |  |  |  |  | 89.7 | 60 to 90 | 41 | ≤ 100
5 | CC(C)(c1ccc(-c2cccc(C3CCC(=O)NC3=O)c2Cl)cc1)N1CCCCC1=O (centres unmarked) [Compound 197, 3-(2-chloro-4′-(2-(2-oxopiperidin-1-yl)propan-2-yl)-[1,1′-biphenyl]-3-yl)piperidine-2,6-dione] | 88.8 | 60 to 90 | 33 | ≤ 100 |  |  |  | 
6 | CN1CC(=O)N(Cc2ccc(-c3cccc(C4CCC(=O)NC4=O)c3Cl)cc2)c2cnccc21 (centres unmarked) [Compound 256] | 75.8 | 60 to 90 | 213 | 100 to 1000 |  |  |  | 
7 | CN1CC(=O)N(c2ccc(-c3cccc(C4CCC(=O)NC4=O)c3Cl)cc2)CC1(C)C (centres unmarked) [Compound 317] | 93.2 | > 90 | 13.6 | ≤ 100 |  |  |  | 
8 | O=C1CCC(c2cccc(-c3ccc(OCc4ccncc4)cc3)c2Cl)C(=O)N1 (centres unmarked) [Compound 124] | 98.8 | > 90 | 4.04 | ≤ 100 |  |  |  | 
9 | O=C1CCC(c2cccc(-c3ccc(N4C(=O)CC45CCC5)cc3)c2Cl)C(=O)N1 (centres unmarked) [Compound 405, 3-(2-chloro-4′-(2-oxo-1-azaspiro[3.3]-heptan-1-yl)-[1,1′-biphenyl]-3-yl)piperidine-2,6-dione] | 76.3 | 60 to 90 | 383 | 100 to 1000 |  |  |  | 
10 | O=C1CCC(c2cccc(-c3ccc4c(c3)CC(=O)N4CC3CC3)c2Cl)C(=O)N1 (centres unmarked) [Compound 506, 3-(2-chloro-3-(1-(cyclopropylmethyl)-2-oxoindolin-5-yl)phenyl)piperidine-2,6-dione] |  |  |  |  | 63.7 | 60 to 90 | 1770 | > 1000
11 | O=C1CCC(c2cccc(-c3ccc(N4CCN(CC(F)F)CC4=O)cc3)c2Cl)C(=O)N1 (centres unmarked) [Compound 446, 3-(2-chloro-4′-(4-(2,2-difluoroethyl)-2-oxopiperazin-1-yl)-[1,1′-biphenyl]-3-yl)piperidine-2,6-dione] | 95.2 | > 90 | 9.83 | ≤ 100 |  |  |  | 
12 | O=C1CCC(c2cccc(-c3ccc(N4C(=O)CCCC45CCC5)cc3)c2Cl)C(=O)N1 (centres unmarked) [Compound 339, 3-(2-chloro-4′-(6-oxo-5-azaspiro[3.5]nonan-5-yl)-[1,1′-biphenyl]-3-yl)piperidine-2,6-dione] | 98.2 | > 90 | 1.96 | ≤ 100 |  |  |  | 
13 | O=C1CCC(c2cccc(-c3ccc(N4CCn5cncc5C4=O)cc3)c2Cl)C(=O)N1 (centres unmarked) [Compound 315] | 89.8 | 60 to 90 | 22 | ≤ 100 |  |  |  | 

Now from value to compound:

Row | Dmax [1] [%] | Dmax [2] [%] | DC50 [3] [nM] | DC50 [4] [nM] | Dmax [5] [%] | Dmax [6] [%] | DC50 [7] [nM] | DC50 [8] [nM] | SMILES
14 | 89.7 | 60 to 90 | 39.7 | ≤ 100 |  |  |  |  | Nc1ccnn1Cc1ccc(-c2cccc(C3CCC(=O)NC3=O)c2Cl)cc1 (centres unmarked) [Compound 118]
15 | 84.6 | 60 to 90 | 43 | ≤ 100 |  |  |  |  | C[C@@H]1COC(=O)N1c1ccc(-c2cccc(C3CCC(=O)NC3=O)c2Cl)cc1 (stereo partly drawn) [Compound 217, 3-(2-chloro-4′-((R)-4-methyl-2-oxooxazolidin-3-yl)-[1,1′-biphenyl]-3-yl)piperidine-2,6-dione]
16 | 84.5 | 60 to 90 | 475 | 100 to 1000 |  |  |  |  | COc1cc(-c2cccc(C3CCC(=O)NC3=O)c2Cl)ccc1C (centres unmarked) [Compound 132]
17 | 96.1 | > 90 | 7.99 | ≤ 100 |  |  |  |  | O=C1CCC(c2cccc(-c3ccc(N4CCC5CC5C4=O)cc3)c2Cl)C(=O)N1 (centres unmarked) [Compound 312]
18 | 90.5 | > 90 | 91.7 | ≤ 100 |  |  |  |  | O=C1CCC(c2cccc(-c3ccc(S(=O)(=O)N4CCCC4)cc3)c2Cl)C(=O)N1 (centres unmarked) [Compound 438, 3-(2-chloro-4′-(pyrrolidin-1-ylsulfonyl)-[1,1′-biphenyl]-3-yl) piperidine-2,6-dione]
19 | 90.7 | > 90 | 62.1 | ≤ 100 |  |  |  |  | Cc1cccc(=O)n1-c1ccc(-c2cccc(C3CCC(=O)NC3=O)c2Cl)cn1 (centres unmarked) [Compound 353, 3-(2-chloro-3-(6-methyl-2-oxo-2H-[1,2′-bipyridin]-5′-yl)phenyl)piperidine-2,6-dione]
20 | 54.6 | < 60 | 4840 | > 1000 |  |  |  |  | O=C1CCC(c2cccc(-c3ccc(C4COC4)cc3)c2Cl)C(=O)N1 (centres unmarked) [Compound 198, 3-(2-chloro-4′-(oxetan-3-yl)-[1,1′-biphenyl]-3-yl)piperidine-2,6-dione]
21 | 14 | < 60 | ≥ 10000 | > 1000 |  |  |  |  | O=C1CCC(c2cccc(-c3ccc(C4COC(=O)N4)cc3)c2Cl)C(=O)N1 (centres unmarked) [Compound 106]
22 | 87.5 | 60 to 90 | 29.3 | ≤ 100 |  |  |  |  | CC1(C)COCC(=O)N1Cc1ccc(-c2cccc(C3CCC(=O)NC3=O)c2Cl)cc1 (centres unmarked) [Compound 263]
23 | 91.6 | > 90 | 91.5 | ≤ 100 |  |  |  |  | O=C1CCC(c2cccc(-c3ccc(CN4Cc5cccnc5C4=O)cc3)c2Cl)C(=O)N1 (centres unmarked) [Compound 299]
24 | 92.8 | > 90 | 24.1 | ≤ 100 |  |  |  |  | O=C1CCC(c2cccc(-c3ccc(-n4cccnc4=O)cc3)c2Cl)C(=O)N1 (centres unmarked) [Compound 471, 3-(2-chloro-4′-(2-oxopyrimidin-1(2H)-yl)-[1,1′-biphenyl]-3-yl)piperidine-2,6-dione]
25 | 98.3 | > 90 | 2.21 | ≤ 100 |  |  |  |  | O=C1CCC(c2cccc(-c3ccc(N4C(=O)NCCC45CCC5)cc3)c2Cl)C(=O)N1 (centres unmarked) [Compound 349, 3-(2-chloro-4′-(6-oxo-5,7-diazaspiro[3.5]nonan-5-yl)-[1,1′-biphenyl]-3-yl)piperidine-2,6-dione]
26 | 71.9 | 60 to 90 | 542 | 100 to 1000 |  |  |  |  | Cn1ccc(-c2ccc(-c3cccc(C4CCC(=O)NC4=O)c3Cl)cc2)n1 (centres unmarked) [Compound 164, 3-(2-chloro-4′-(1-methyl-1H-pyrazol-3-yl)-[1,1′-biphenyl]-3-yl)piperidine-2,6-dione]
